Test results: patent US6403626B1, “Benzimidazole derivatives” (Synaptic Pharmaceutical Corporation, priority 1994, dated 2002)
Where a name gives a salt, the structure may show the parent alone. Read-outs that look alike come from different tables or passages of the source.

Key:
[1] = target: T1, α2B Human Adrenergic Receptor (Homo sapiens, UniProt P18089); test: Equilibrium competition binding, [3H] rauwolscine, membranes of transfected Y-1 cells
T1 construct: expressed in transfected cells; host or cells: Y-1 cells
T1 sequence (P18089 1-450): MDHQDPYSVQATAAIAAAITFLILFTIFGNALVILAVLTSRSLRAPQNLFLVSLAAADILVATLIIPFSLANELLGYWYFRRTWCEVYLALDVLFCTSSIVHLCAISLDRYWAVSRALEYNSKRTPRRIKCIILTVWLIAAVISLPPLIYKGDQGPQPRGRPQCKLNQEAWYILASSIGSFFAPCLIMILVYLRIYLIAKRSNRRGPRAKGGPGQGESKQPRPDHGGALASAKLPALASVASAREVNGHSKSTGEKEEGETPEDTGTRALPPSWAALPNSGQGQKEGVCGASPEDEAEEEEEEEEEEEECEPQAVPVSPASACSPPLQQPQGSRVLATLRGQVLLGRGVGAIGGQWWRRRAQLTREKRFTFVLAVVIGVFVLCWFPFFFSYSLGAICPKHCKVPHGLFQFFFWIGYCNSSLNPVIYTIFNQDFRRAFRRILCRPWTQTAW
Procedure: (§1) Binding and functional assays were performed using stably transfected human alpha adrenergic receptors. Equilibrium competition binding assays were performed with membrane preparations from cultured LM(tk-) cells stably transfected with the cloned human adrenoceptor subtypes except for α2b, which was expressed in Y-1 cells, using [^3H] prazosin for α1 receptors and [^3H] rauwolscine for α2 receptors.
(§2) Stable cell lines were selected as described above.
(§3) Transfected cells from culture flasks were scraped into 5 ml of 5 mM Tris-HCl, 5 mM EDTA, pH 7.5, and lysed by sonication. The cell lysates were centrifuged at 1000 rpm for 5 min at 4° C., and the supernatant was centrifuged at 30,000×g for 20 min at 4° C. The pellet was suspended in 50 mM Tris-HCl, 1 mM MgCl2, and 0.1% ascorbic acid at pH 7.5. Binding of α2 antagonist [^3H] rauwolscine ([…]) to membrane preparations of LM(tk-) cells was done in a final volume of 0.25 ml and incubated at 37° C. for 20 min. Nonspecific binding was determined in the presence of 10 μM phentolamine. The reaction was stopped by filtration through GF/B filters using a cell harvester.

[2] = target: T2, α2C Human Adrenergic Receptor (Homo sapiens, UniProt P18825); test: Equilibrium competition binding, [3H] rauwolscine, membranes of transfected LM(tk-) cells
T2 sequence (P18825 1-462): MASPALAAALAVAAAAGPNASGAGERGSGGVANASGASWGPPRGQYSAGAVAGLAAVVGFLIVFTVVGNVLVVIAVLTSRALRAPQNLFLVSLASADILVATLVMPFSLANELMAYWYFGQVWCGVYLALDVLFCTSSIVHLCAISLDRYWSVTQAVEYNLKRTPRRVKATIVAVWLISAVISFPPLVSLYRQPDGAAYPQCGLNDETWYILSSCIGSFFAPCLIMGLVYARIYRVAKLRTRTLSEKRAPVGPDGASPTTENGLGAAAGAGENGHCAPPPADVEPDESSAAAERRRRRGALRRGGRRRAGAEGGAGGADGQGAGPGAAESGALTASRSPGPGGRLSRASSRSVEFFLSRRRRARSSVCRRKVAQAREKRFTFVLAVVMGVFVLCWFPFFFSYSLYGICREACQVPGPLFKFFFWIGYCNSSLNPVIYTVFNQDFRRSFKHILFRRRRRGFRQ

[3] = target: T2, α2C Human Adrenergic Receptor; format: cell-based; design: The entire coding region of α2C (1383 bp), including 2 bp of 5′ UT and 400 bp of 3′ UT; expressed in transfected cells; host or cells: LM(tk-) cells; conditions: for I.A Alpha-2 C: functional cAMP assay
Procedure: as §1
The insert housing this coding region was an @ 1.8 kb Ncol/EcoRI human spleen genomic fragment which was end-blunted by either T4 polymerase or Klenow fragment of DNA polymerase. Stable cell lines were selected as described above.
(§4) The agonist activity (expressed as pEC50) was measured as a function of the ability to inhibit the forskolin-stimulated synthesis of cyclic adenosine monophosphate (cAMP). The stably transfected cells were incubated in Ham's F10 with 5 mM theophylline, 10 mM HEPES, 10 μM pargyline, and/or appropriate concentrations of forskolin for 20 min at 37° C. in 5% CO2. The tested compounds were then added to a final concentration of 0.001 nM to 1 μM and incubated for an additional 15 min at 37° C. in 5% CO2. The medium was aspirated and the reaction was stopped by the addition of 100 mM HCl . […] The plates are stored at 4° C. for 15 min and assayed to determine the linear concentration of cAMP. The appropriate dilution is interpolated from the standard curve of cold cAMP. The assessment of cAMP formation is determined by radioimmunoassay (cAMP radioimmunoassay kit; Advanced Magnetics, Cambridge, Mass.). Radioactivity was quantified using a Packard COBRA Auto Gamma counter, equipped with data reduction software.

[4] = target: T1, α2B Human Adrenergic Receptor; format: cell-based
Procedure: as §1, §2, §4

[5] = target: T3, α1A Human Adrenergic Receptor (Homo sapiens, UniProt P25100); test: Equilibrium competition binding, [3H] prazosin, membranes of transfected LM(tk-) cells
T3 construct: expressed in transfected cells; host or cells: LM(tk-) cells
T3 sequence (P25100 1-572): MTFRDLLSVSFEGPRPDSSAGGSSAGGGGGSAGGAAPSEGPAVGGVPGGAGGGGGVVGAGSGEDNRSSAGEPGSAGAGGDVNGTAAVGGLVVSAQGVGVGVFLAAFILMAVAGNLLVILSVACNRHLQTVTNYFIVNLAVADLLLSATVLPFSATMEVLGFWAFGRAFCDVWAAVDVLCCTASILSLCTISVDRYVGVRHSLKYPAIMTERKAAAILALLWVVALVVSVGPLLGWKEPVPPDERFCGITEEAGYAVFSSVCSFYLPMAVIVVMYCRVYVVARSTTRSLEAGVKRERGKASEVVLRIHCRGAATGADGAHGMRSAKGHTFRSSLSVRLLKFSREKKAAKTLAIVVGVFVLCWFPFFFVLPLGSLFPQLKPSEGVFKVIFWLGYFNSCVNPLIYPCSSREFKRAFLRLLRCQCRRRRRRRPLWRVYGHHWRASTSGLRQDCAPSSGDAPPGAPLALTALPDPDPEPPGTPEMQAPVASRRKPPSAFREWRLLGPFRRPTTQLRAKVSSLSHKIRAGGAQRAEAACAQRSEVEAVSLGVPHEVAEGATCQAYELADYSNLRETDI
Procedure: as §1, §3, §2

[6] = target: T4, α1B Human Adrenergic Receptor (Homo sapiens, UniProt P35368); test: as above; conditions: cloned human receptor, [3H] prazosin
T4 construct: The entire coding region of α1B(1563 bp); expressed in transfected cells; host or cells: LM(tk-) cells
T4 sequence (P35368 1-520): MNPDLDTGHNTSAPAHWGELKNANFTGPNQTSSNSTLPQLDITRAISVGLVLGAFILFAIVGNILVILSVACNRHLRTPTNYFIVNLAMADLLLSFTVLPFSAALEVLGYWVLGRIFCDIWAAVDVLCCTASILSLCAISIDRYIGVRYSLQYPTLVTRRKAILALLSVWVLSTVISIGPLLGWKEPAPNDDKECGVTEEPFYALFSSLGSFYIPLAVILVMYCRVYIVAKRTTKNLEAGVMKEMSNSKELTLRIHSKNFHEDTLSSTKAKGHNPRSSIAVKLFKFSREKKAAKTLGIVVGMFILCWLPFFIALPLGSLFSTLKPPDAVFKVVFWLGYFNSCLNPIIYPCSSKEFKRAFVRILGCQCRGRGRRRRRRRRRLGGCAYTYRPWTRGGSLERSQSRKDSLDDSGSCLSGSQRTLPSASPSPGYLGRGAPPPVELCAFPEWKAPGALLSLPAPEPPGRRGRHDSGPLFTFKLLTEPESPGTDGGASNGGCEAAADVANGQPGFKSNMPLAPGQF
Procedure: as §1, §3
The construct involved ligating the full-length containing EcoRI brainstem cDNA fragment from ZapII into the expression vector. The stable cell lines were selected as described above.

[7] = cloned human receptor, [3H] rauwolscine, read-out: pKi Alpha-2 B (converted)
[8] = inhibition of forskolin-stimulated cAMP, NA: Not Active, read-out: pEC50 Alpha-2 C (converted)

| SMILES | Ki [2] | I.A Alpha-2 C [3] | melting point | Ki [1] | further results |
| --- | --- | --- | --- | --- | --- |
| COc1cccc(Cn2cnc3c(Br)c(NC4=NCCN4)ccc32)c1 [Example 37, 1-(3-Methoxybenzyl)-4-bromo-5-(2-imidazolin-2-ylamino)Benzimidazole] | 117 nM | 0.50 |  |  | Ki [1, 7]: 81.3 nM; EC50 [3, 8]: 52.5 nM |
| Clc1c(NC2=NCCN2)ccc2nc[nH]c12 (as salt: fumarate) [Example 3, 4-Chloro-5-(2-imidazolin-2-ylamino)Benzimidazole] |  |  | 207 to 208 °C |  |  |
| c1nc2ccc(NC3=NCCN3)cc2[nH]1 (as salt: fumarate) [Example 1, 5-(2-Imidazolin-2-ylamino)Benzimidazole] |  |  | 196 to 198 °C |  |  |
| CC(C)Cn1cnc2cc(NC3=NCCN3)ccc21 (as salt: fumarate) [Example 22, 1-Isobutyl-5-(2-imidazolin-2-ylamino)Benzimidazole] |  |  | 185 to 186 °C |  |  |
| c1ccc(-c2cc(NC3=NCCN3)cc3[nH]cnc23)cc1 (as salt: fumarate) [Example 57, 7-Phenyl-5-(2-imidazolin-2-ylamino)Benzimidazole] |  |  | 149 to 151 °C |  |  |
| COc1cccc(Cn2cnc3c(Br)c(NC4=NCCN4)ccc32)c1 (as salt: fumarate) [Example 37, 1-(3-Methoxybenzyl)-4-bromo-5-(2-imidazolin-2-ylamino)Benzimidazole] |  |  | 177 to 178 °C |  |  |
| c1ccc(Cn2cnc3cc(NC4=NCCN4)ccc32)cc1 (as salt: fumarate) [Example 32, 1-Benzyl-5-(2-imidazolin-2-ylamino)Benzimidazole] |  |  | 174 to 175 °C |  |  |
| Brc1c(NC2=NCCN2)ccc2nc(C3CC3)[nH]c12 [Example 47, 2-Cyclopropyl-4-bromo-5-(2-imidazolin-2-ylamino)Benzimidazole] | 224 nM |  |  | 44.7 nM | EC50 [4]: 115 nM; EC50 [3]: 45.7 nM |
| Cc1cc2nc[nH]c2cc1NC1=NCCN1 [Example 49, 6-Methyl-5-(2-imidazolin-2-ylamino)Benzimidazole] |  | 1.00 |  | 36.3 nM |  |
| Brc1cc(NC2=NCCN2)cc2[nH]cnc12 [Example 51, 7-Bromo-5-(2-imidazolin-2-ylamino)Benzimidazole] | 123 nM | 1.00 |  | 27.5 nM | EC50 [4]: 89.1 nM; I.A Alpha-2 B [4]: 0.60; EC50 [3]: 4.27 nM |
| Clc1cccc(Cl)c1N=C1NCCN1 [Clonidine, reference compound] |  |  |  |  | Ki ([5]; cloned human receptor, [3H] prazosin, read-out: pKi Alpha-1 A (converted)): 513 nM; pKi Alpha-1 B [6]: 5.62 |
| Cc1cc(NC2=NCCN2)cc2[nH]cnc12 [Example 52, 7-Methyl-5-(2-imidazolin-2-ylamino)Benzimidazole] |  | 1.00 |  | 77.6 nM | EC50 [4]: 72.4 nM; I.A Alpha-2 B [4]: 0.80 |
| CCc1cc(NC2=NCCN2)cc2[nH]cnc12 [Example 55, 7-Ethyl-5-(2-imidazolin-2-ylamino)Benzimidazole] | 427 nM | 0.80 |  | 209 nM | EC50 [3, 8]: 162 nM |
| CC(C)n1cnc2c(I)c(NC3=NCCN3)ccc21 [Example 19, 1-lsopropyl-4-Iodo-5-(2-imidazolin-2-ylamino)Benzimidazole] | 129 nM |  |  |  | Ki [1, 7]: 214 nM |
| CCCn1cnc2cc(NC3=NCCN3)ccc21 [Example 13, 1-Propyl-5-(2-imidazolin-2-ylamino)Benzimidazole] | 398 nM |  |  | 363 nM | Ki [5]: 10500 nM; Ki ([6]; read-out: pKi Alpha-1 B (converted)): 93300 nM |
| c1ccc(-c2cc(NC3=NCCN3)cc3[nH]cnc23)cc1 [Example 57, 7-Phenyl-5-(2-imidazolin-2-ylamino)Benzimidazole] | 135 nM |  |  |  | Ki [1, 7]: 60.3 nM; I.A Alpha-2 B ([4]; functional cAMP assay): 1.00; EC50 ([4]; inhibition of forskolin-stimulated cAMP, NA: Not Active, read-out: pEC50 Alpha-2 B (converted)): 8510 nM; EC50 [3, 8]: 15.1 nM |
| Brc1c(NC2=NCCN2)ccc2c1ncn2CC1CCCCC1 [Example 30, 1-Cyclohexylmethyl-4-bromo-5-(2-imidazolin-2-ylamino)Benzimidazole] | 309 nM |  |  |  | Ki [1, 7]: 166 nM |
| CCc1c(NC2=NCCN2)ccc2nc[nH]c12 [Example 6, 4-Ethyl-5-(2-imidazolin-2-ylamino)Benzimidazole] | 47.9 nM | 1.00 |  | 22.4 nM | EC50 [4]: 22.4 nM; I.A Alpha-2 B [4]: 1.00; EC50 [3]: 3.98 nM |
